In patent publication US8946215B2, “Hydroxy-substituted imidazo[1,2-a]pyridinecarboxamides and their use” (Bayer Pharma Aktiengesellschaft, priority 2012, dated 2015):
Counter-ions that a name gives are not always drawn.

target: T1, recombinant guanylate cyclase reporter cell line (Rattus norvegicus, UniProt P19686+P20595); experiment: Action on recombinant guanylate cyclase reporter cell line; assay type: cell-based; settings: in some cases mean values obtained from individual determinations
T1 construct: expressed in transfected cells
T1 sequence (P20595 1-619): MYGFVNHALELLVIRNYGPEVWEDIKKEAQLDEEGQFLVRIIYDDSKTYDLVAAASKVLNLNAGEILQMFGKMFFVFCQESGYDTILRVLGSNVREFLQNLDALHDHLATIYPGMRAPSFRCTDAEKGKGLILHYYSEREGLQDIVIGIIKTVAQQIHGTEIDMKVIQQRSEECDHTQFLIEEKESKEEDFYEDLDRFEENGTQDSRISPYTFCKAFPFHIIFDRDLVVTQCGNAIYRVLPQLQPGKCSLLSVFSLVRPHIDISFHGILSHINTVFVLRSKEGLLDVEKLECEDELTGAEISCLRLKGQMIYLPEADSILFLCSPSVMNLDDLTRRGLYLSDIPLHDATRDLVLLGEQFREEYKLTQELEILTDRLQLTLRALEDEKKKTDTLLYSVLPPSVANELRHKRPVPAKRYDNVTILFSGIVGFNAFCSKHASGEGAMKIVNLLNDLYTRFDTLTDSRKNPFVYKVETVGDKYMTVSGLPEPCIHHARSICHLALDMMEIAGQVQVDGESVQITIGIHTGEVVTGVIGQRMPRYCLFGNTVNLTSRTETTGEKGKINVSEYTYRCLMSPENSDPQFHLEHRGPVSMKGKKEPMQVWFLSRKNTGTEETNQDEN
T1 sequence (P19686 1-690): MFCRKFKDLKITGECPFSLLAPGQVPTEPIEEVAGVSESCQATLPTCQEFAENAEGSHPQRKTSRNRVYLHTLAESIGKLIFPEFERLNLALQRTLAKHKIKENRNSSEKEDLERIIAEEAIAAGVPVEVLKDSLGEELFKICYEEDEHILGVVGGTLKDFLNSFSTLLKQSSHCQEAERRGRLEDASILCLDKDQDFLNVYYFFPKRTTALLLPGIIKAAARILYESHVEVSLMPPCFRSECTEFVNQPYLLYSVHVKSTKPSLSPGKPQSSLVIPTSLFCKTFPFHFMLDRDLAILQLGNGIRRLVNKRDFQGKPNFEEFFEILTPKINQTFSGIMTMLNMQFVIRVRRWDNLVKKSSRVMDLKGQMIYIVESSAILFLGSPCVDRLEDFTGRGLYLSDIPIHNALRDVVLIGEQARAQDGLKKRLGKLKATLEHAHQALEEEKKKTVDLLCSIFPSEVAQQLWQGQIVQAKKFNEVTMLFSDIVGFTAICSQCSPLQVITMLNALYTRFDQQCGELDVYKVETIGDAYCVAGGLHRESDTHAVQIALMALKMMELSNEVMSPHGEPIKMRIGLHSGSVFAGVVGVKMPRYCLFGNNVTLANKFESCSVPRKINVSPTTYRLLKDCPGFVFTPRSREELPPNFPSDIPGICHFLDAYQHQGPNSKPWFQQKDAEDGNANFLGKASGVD
Protocol: B-2. Action on Recombinant Guanylate Cyclase Reporter Cell Line
The cellular action of the compounds according to the invention is determined on a recombinant guanylate cyclase reporter cell line, as described in F. Wunder et al., Anal. Biochem. 339, 104-112 (2005).
Representative values (MEC=minimal effective concentration) for the compounds according to the invention are shown in the following table (in some cases as mean values obtained from individual determinations): […]

Row | MEC (minimal effective concentration) [µM] | Structure (SMILES)
1 | 0.03 | Cc1nc2c(OCc3c(F)cccc3F)cccn2c1C(=O)NC(CO)CC(F)(F)F (racemic) [Example 100, rac-8-[(2,6-Difluorobenzyl)oxy]-2-methyl-N-(4,4,4-trifluoro-hydroxybutan-2-yl)imidazo[1,2-a]-pyridine-3-carboxamide trifluoroacetate]
2 | 0.1 | Cc1nc2c(OCc3c(F)cccc3F)cccn2c1C(=O)NC(CO)CCC(F)(F)F (racemic) [Example 101, rac-8-[(2,6-difluorobenzyl)oxy]-2-methyl-N-(5,5,5-trifluoro-1-hydroxypentan-2-yl)-imidazo[1,2-a]pyridine-3-carboxamide trifluoroacetate]
3 | 0.3 | Cc1nc2c(OCc3c(F)cccc3F)cccn2c1C(=O)NC(CO)C(F)(F)F (racemic) [Example 110, rac-8-[(2,6-Difluorobenzyl)oxy]-2-methyl-N-(1,1,1-trifluoro-3-hydroxypropan-2-yl)imidazo[1,2-a]pyridine-3-carboxamide]
4 | 0.03 | Cc1nc2c(OCc3c(F)cccc3F)cccn2c1C(=O)NC(CO)CC(F)(F)F (racemic) [Example 113, rac-8-[(2,6-Difluorobenzyl)oxy]-2-methyl-N-(4,4,4-trifluoro-1-hydroxybutan-2-yl)imidazo[1,2-a]-pyridine-3-carboxamide]
5 | 0.03 | Cc1nc2c(OCc3c(F)cccc3F)cccn2c1C(=O)NC(CO)CCCC(F)(F)F (racemic) [Example 114, rac-8-[(2,6-difluorobenzyl)oxy]-2-methyl-N-(6,6,6-trifluoro-1-hydroxyhexan-2-yl)imidazo[1,2-a]pyridine-3-carboxamide]
6 | 0.1 | Cc1nc2c(OCc3c(F)cccc3F)cccn2c1C(=O)NC(CCC(F)(F)F)C(C)(C)O (racemic) [Example 149, rac-8-[(2,6-difluorobenzyl)oxy]-2-methyl-N-(6,6,6-trifluoro-2-hydroxy-2-methylhexan-3-yl)imidazo[1,2-a]pyridine-3-carboxamide]
7 | 0.03 | Cc1nc2c(OCc3c(F)cccc3F)cccn2c1C(=O)NC(CCCC(F)(F)F)C(C)(C)O (racemic) [Example 150, rac-8-[(2,6-difluorobenzyl)oxy]-2-methyl-N-(7,7,7-trifluoro-2-hydroxy-2-methylheptan-3-yl)imidazo[1,2-a]pyridine-3-carboxamide]

More lines, now with the values behind:

Row | Structure (SMILES) | MEC (minimal effective concentration) [µM]
8 | Cc1cc(OCc2ncccc2F)c2nc(C)c(C(=O)NC(CCC(O)C(F)(F)F)C(C)(C)O)n2c1 (mixture of isomers) [Example 195, 8-[(3-fluoropyridin-2-yl)methoxy]-2,6-dimethyl-N-(7,7,7-trifluoro-2,6-dihydroxy-2-methylheptan-3-yl)imidazo[1,2-a]pyridine-3-carboxamide (stereoisomer mixture)] | 10
9 | Cc1nc2c(OCc3c(F)cccc3F)cccn2c1C(=O)NC1CCC(O)CC1 (racemic) [Example 42, (rac)-8-[(2,6-difluorobenzyl)oxy]-N-(trans-4-hydroxycyclohexyl)-2-methylimidazo[1,2-a]-pyridine-3-carboxamide] | 1.0
10 | CCC(CO)NC(=O)c1c(C)nc2c(OCC3CCCCC3)cccn12 (racemic) [Example 69, (rac)-8-(cyclohexylmethoxy)-N-(1-hydroxybutan-2-yl)-2-methylimidazo)[1,2-a]pyridine-3-carboxamide formate] | 0.1
11 | C=CCC(CO)NC(=O)c1c(C)nc2c(OCC3CCCCC3)cccn12 (racemic) [Example 70, (rac)-8-(cyclohexylmethoxy)-N-(1-hydroxypent-4-en-2-yl)-2-methylimidazo[1,2-a]pyridine-3-carboxamide] | 0.1
12 | Cc1nc2c(OCC3CCCCC3)cccn2c1C(=O)N[C@H]1CCC[C@@H]1O (racemic) [Example 71, (rac)-8-(cyclohexylmethoxy)-N-[trans-2-hydroxycyclopentyl]-2-methylimidazo[1,2-a]-pyridine-3-carboxamide] | 0.1
13 | Cc1nc2c(OCC3CCCCC3)cccn2c1C(=O)N[C@@H]1CCCC[C@H]1O (racemic) [Example 78, (rac)-8-(cyclohexylmethoxy)-N-[(trans)-2-hydroxycyclohexyl]-2-methylimidazo[1,2-a]-pyridine-3-carboxamide] | 0.3
14 | Cc1nc2c(OCc3c(F)cccc3F)cccn2c1C(=O)NC(CO)c1ccc(F)cc1 (racemic) [Example 103, rac-8-[(2,6-difluorobenzyl)oxy]-N-[1-(4-fluorophenyl)-2-hydroxyethyl]-2-methylimidazo[1,2-a]pyridine-3-carboxamide trifluoroacetate] | 0.1
15 | Cc1nc2c(OCc3c(F)cccc3F)cccn2c1C(=O)NCC(O)C(F)(F)F (racemic) [Example 106, rac-8-[(2,6-difluorobenzyl)oxy]-2-methyl-N-(3,3,3-trifluoro-2-hydroxypropyl)imidazo[1,2-a]pyridine-3-carboxamide trifluoroacetate] | 0.3
16 | Cc1nc2c(OCc3c(F)cccc3F)cccn2c1C(=O)NC(CO)c1ccccn1 (racemic) [Example 119, rac-8-[(2,6-difluorobenzyl)oxy]-N-[2-hydroxy-1-(pyridin-2-yl)ethyl]-2-methylimidazo[1,2-a]-pyridine-3-carboxamide] | 0.3
17 | Cc1nc2c(OCc3c(F)cccc3F)cccn2c1C(=O)NC(CO)c1ccc(S(C)(=O)=O)cc1 (racemic) [Example 120, rac-8-[(2,6-difluorobenzyl)oxy]-N-{2-hydroxy-1-[4-(methylsulphonyl)phenyl]ethyl}-2-methylimidazo[1,2-a]pyridine-3-carboxamide] | 1.0
18 | Cc1nc2c(OCc3c(F)cccc3F)cccn2c1C(=O)NC(CO)c1cccnc1 (racemic) [Example 124, rac-8-[(2,6-Difluorobenzyl)oxy]-N-[2-hydroxy-1-(pyridin-3-yl)ethyl]-2-methylimidazo[1,2-a]-pyridine-3-carboxamide] | 0.3
19 | Cc1nc2c(OCc3c(F)cccc3F)cccn2c1C(=O)NC(c1ccc(Cl)cc1)C(C)(C)O (racemic) [Example 151, rac-N-[1-(4-chlorophenyl)-2-hydroxy-2-methylpropyl]-8-[(2,6-difluorobenzyl)oxy]-2-methylimidazo[1,2-a]pyridine-3-carboxamide] | 0.3
20 | Cc1nc2c(OCc3c(F)cccc3F)cccn2c1C(=O)NC(c1ccc(F)cc1)C(C)(C)O (racemic) [Example 152, rac-8-[(2,6-difluorobenzyl)oxy]-N-[1-(4-fluorophenyl)-2-hydroxy-2-methylpropyl]-2-methylimidazo[1,2-a]pyridine-3-carboxamide] | 0.3
21 | CCOCC(CO)NC(=O)c1c(C)nc2c(OCc3c(F)cccc3F)cccn12 (racemic) [Example 160, rac-8-[(2,6-Difluorobenzyl)oxy]-N-(1-ethoxy-3-hydroxypropan-2-yl)-2-methylimidazo[1,2-a]-pyridine-3-carboxamide] | 0.3
22 | CCCOCC(CO)NC(=O)c1c(C)nc2c(OCc3c(F)cccc3F)cccn12 (racemic) [Example 162, rac-8-[(2,6-Difluorobenzyl)oxy]-N-(1-hydroxy-3-propoxypropan-2-yl)-2-methylimidazo[1,2-a]-pyridine-3-carboxamide] | 0.3

same assay, conditions: in some cases mean values obtained from individual determinations, trifluoroacetate

Row | MEC (minimal effective concentration) [µM] | Structure (SMILES)
23 | 0.1 | Cc1nc2c(OCc3c(F)cccc3F)cccn2c1C(=O)NC(CO)CCCC(F)(F)F (racemic) [Example 102, rac-8-[(2,6-difluorobenzyl)oxy]-2-methyl-N-(6,6,6-trifluoro-1-hydroxyhexan-2-yl)-imidazo[1,2-a]pyridine-3-carboxamide trifluoroacetate]
